Patent publication US11306344B2, “Spectral intensity ratio (SIR) analysis for rapid live microbial enumeration” (TACOUNT EXACT LTD., priority 2015, dated 2022)
Read-outs that look alike come from different tables or passages of the source.

Assays:
Entrobacter cloacae = experiment: Flow-Cytometry NVP of dye-stained bacteria; assay type: cell-based, E. cloacae
Enterococcus faecalis = experiment: Flow-Cytometry SIR and NVP of dye-stained bacteria; assay type: cell-based, E. faecalis
S. aureus = experiment: Flow-Cytometry NVP of dye-stained bacteria; assay type: cell-based
E. coli #8739 [1] = experiment: Flow-Cytometry SIR and NVP of dye-stained bacteria; assay type: cell-based; settings: for NVP calculation / SIR calculation: 670 (14)/780 (60) nm channels
Bacillus subtillis = experiment: Flow-Cytometry NVP of dye-stained bacteria; assay type: cell-based, B. subtilis
E. coli - O157 = assay type: cell-based, E. coli O157:H7 (EHEC)
Enterococcus faecium = experiment: Flow-Cytometry NVP of dye-stained bacteria; assay type: cell-based, E. faecium
Pseudomonas aeruginosa = experiment: Flow-Cytometry NVP of dye-stained bacteria; assay type: cell-based, Ps. Aeruginosa
Entrobacter aerogenes = experiment: Flow-Cytometry NVP of dye-stained bacteria; assay type: cell-based, E. aerogenes
E. coli #8739 [2] = experiment: Fluorimeter (spectrofluorimetry) spectra, SIR and NVP of dye-stained bacteria; assay type: cell-based
E. coli - #25922 = experiment: Flow-Cytometry NVP of dye-stained bacteria; assay type: cell-based; settings: FM 1-43 staining
E. coli K12 (MG1655) = experiment: Flow-Cytometry SIR analysis of E. coli K12 grown with ampicillin (FM 1-43 staining); assay type: cell-based; settings: 1 hour
Procedure: The disclosed method was further validated in studies using E. coli K12 (MG1655, obtained from ATCC). After 5 hours of growth in medium, E. coli were divided into three groups: (A) grown for one hour with no antibiotics, (B) grown for one hour with 700 micrograms of ampicillin, and (C) grown for one hour with 1500 micrograms of ampicillin.
The bacteria were suspended in PBS and stained with FM® 1-43 (43N-(3-Triethylammoniumpropyl)-4-(4-(Dibutylamino) Styryl) Pyridinium Dibromide) ([…] as per the methodology described earlier.
Flow-Cytometry measurements of the stained bacterial samples were performed. In order to adjust the flow-cytometry to the spectral characterization as shown in the fluorescence spectra of the FM® 1-43 (43N-(3-Triethylammoniumpropyl)-4-(4-(Dibutylamino) Styryl) Pyridinium Dibromide) stained bacteria, the […] nm excitation channel of the flow-cytometry and two fluorescence channel using 530 (30) nm and 610 (20) nm as the λ1 and λ2 for the SIR calculation were used. The results are tabulated below and depicted in FIG. 14.

## CCCCN(CCCC)c1ccc(/C=C/c2cc[n+](CCC[N+](CC)(CC)CC)cc2)cc1.[Br-].[Br-] [FM® 1-43, N-(3-Triethylammoniumpropyl)-4-(4-(Dibutylamino) Styryl) Pyridinium Dibromide]
Entrobacter cloacae; FM 1-43 staining, Chlorine
  NVP values: 10
Entrobacter cloacae; FM 1-43 staining, Heated
  NVP values: 8
Entrobacter cloacae; FM 1-43 staining, UV-MP
  NVP values: 5
Enterococcus faecalis; 530(30)/610(20), Chlorine
  NVP: 2
Enterococcus faecalis; 530(30)/610(20), Heated
  NVP: 1.6
Enterococcus faecalis; 530(30)/610(20), UV-MP
  NVP: 1.1
Enterococcus faecalis; Chlorine
  SIR: 530(30)/610(20): 13
Enterococcus faecalis; FM 1-43 staining, Chlorine
  NVP values: 2
Enterococcus faecalis; FM 1-43 staining, Heated
  NVP values: 1.6
Enterococcus faecalis; FM 1-43 staining, UV-MP
  NVP values: 1.1
Enterococcus faecalis; Heated
  SIR: 530(30)/610(20): 10.3
Enterococcus faecalis; Live
  SIR: 530(30)/610(20): 6.5
Enterococcus faecalis; UV-MP
  SIR: 530(30)/610(20): 7.1
S. aureus; FM 1-43 staining, Chlorine
  NVP values: 1.7
S. aureus; FM 1-43 staining, Heated
  NVP values: 1.6
S. aureus; FM 1-43 staining, UV-MP
  NVP values: 1.1
E. coli #8739 [1]; 85°, 15 min
  Non-Viability Parameter (NVP): 9
  SIR (610/530) Ratio: 8.8
E. coli #8739 [1]; Chlorine 0.05%
  Non-Viability Parameter (NVP): 10
  SIR (610/530) Ratio: 9.6
E. coli #8739 [1]; Ethanol 70%
  Non-Viability Parameter (NVP): 7
  SIR (610/530) Ratio: 6.5
E. coli #8739 [1]; FM 1-43 staining, Chlorine
  NVP values: 10
E. coli #8739 [1]; FM 1-43 staining, Heated
  NVP values: 9
E. coli #8739 [1]; FM 1-43 staining, UV-MP
  NVP values: 5
E. coli #8739 [1]; Live bacteria
  SIR (610/530) Ratio: 0.73
E. coli #8739 [1]; UV-LP 30 mJ
  Non-Viability Parameter (NVP): 1
  SIR (610/530) Ratio: 0.7
E. coli #8739 [1]; UV-MP 30 mJ
  Non-Viability Parameter (NVP): 5
  SIR (610/530) Ratio: 3.5
Bacillus subtillis; FM 1-43 staining, Chlorine
  NVP values: 1.5
Bacillus subtillis; FM 1-43 staining, Heated
  NVP values: 1.2
Bacillus subtillis; FM 1-43 staining, UV-MP
  NVP values: 1.2
E. coli - O157
  NVP values: ~10
E. coli - O157; FM 1-43 staining, Heated
  NVP values: ~10
Enterococcus faecium; FM 1-43 staining, Chlorine
  NVP values: 1.7
Enterococcus faecium; FM 1-43 staining, Heated
  NVP values: 1.6
Pseudomonas aeruginosa; FM 1-43 staining, Chlorine
  NVP values: 5
Pseudomonas aeruginosa; FM 1-43 staining, Heated
  NVP values: 4.6
Pseudomonas aeruginosa; FM 1-43 staining, UV-MP
  NVP values: 3.2
Entrobacter aerogenes; FM 1-43 staining, Chlorine
  NVP values: 12
Entrobacter aerogenes; FM 1-43 staining, Heated
  NVP values: 8
Entrobacter aerogenes; FM 1-43 staining, UV-MP
  NVP values: 4.5
E. coli #8739 [2]; 85°, 15 min
  Non-Viability Parameter (NVP): ~5
  SIR (I610/I530): ~7
E. coli #8739 [2]; Chlorine 0.05%
  Non-Viability Parameter (NVP): ~5
  SIR (I610/I530): ~8
E. coli #8739 [2]; Ethanol 70%
  Non-Viability Parameter (NVP): ~3
  SIR (I610/I530): 4.4
E. coli #8739 [2]; Live bacteria
  SIR (I610/I530): ~1.5
E. coli #8739 [2]; UV-LP 30 mJ
  Non-Viability Parameter (NVP): 1
  SIR (I610/I530): 1
E. coli #8739 [2]; UV-MP 30 mJ
  Non-Viability Parameter (NVP): ~2
  SIR (I610/I530): 3.7
E. coli - #25922; Chlorine
  NVP values: 9
E. coli - #25922; Heated
  NVP values: 7
E. coli - #25922; UV-MP
  NVP values: 5

## CCN(CC)c1ccc(C=CC=CC=Cc2cc[n+](CCC[N+](CC)(CC)CC)cc2)cc1.[Br-].[Br-] [FM® 4-64, N-(3-Triethylammoniumpropyl)-4-(6-(4-(Diethylamino) Phenyl) Hexatrienyl) Pyridinium Dibromide]
Entrobacter cloacae; FM 4-64 staining, Chlorine
  NVP values: 4.5
Entrobacter cloacae; FM 4-64 staining, Heated
  NVP values: 3.7
Entrobacter cloacae; FM 4-64 staining, UV-MP
  NVP values: 2.5
Enterococcus faecalis; 670(14)/780(60), Chlorine
  NVP: 2.9
Enterococcus faecalis; 670(14)/780(60), Heated
  NVP: 3
Enterococcus faecalis; 670(14)/780(60), UV-MP
  NVP: 1.2
Enterococcus faecalis; Chlorine
  SIR: 670(14)/780(60): 19.7
Enterococcus faecalis; FM 4-64 staining, Chlorine
  NVP values: 2.9
Enterococcus faecalis; FM 4-64 staining, Heated
  NVP values: 3
Enterococcus faecalis; FM 4-64 staining, UV-MP
  NVP values: 1.2
Enterococcus faecalis; Heated
  SIR: 670(14)/780(60): 20
Enterococcus faecalis; Live
  SIR: 670(14)/780(60): 6.7
Enterococcus faecalis; UV-MP
  SIR: 670(14)/780(60): 8.1
S. aureus; FM 4-64 staining, Chlorine
  NVP values: 2.4
S. aureus; FM 4-64 staining, Heated
  NVP values: 3
S. aureus; FM 4-64 staining, UV-MP
  NVP values: 1.1
E. coli #8739 [1]; Chlorinated
  NVP calculation: 3.4
  SIR calculation: 12
E. coli #8739 [1]; Heated (85°, 15 min)
  NVP calculation: 4
  SIR calculation: 14
E. coli #8739 [1]; Live
  SIR calculation: 3.5
E. coli #8739 [1]; UV-MP
  NVP calculation: 3.7
  SIR calculation: 13
E. coli #8739 [1]; FM 4-64 staining, Chlorine
  NVP values: 3.4
E. coli #8739 [1]; FM 4-64 staining, Heated
  NVP values: 4
E. coli #8739 [1]; FM 4-64 staining, UV-MP
  NVP values: 3.7
Bacillus subtillis; FM 4-64 staining, Chlorine
  NVP values: 1.5
Bacillus subtillis; FM 4-64 staining, Heated
  NVP values: 1.8
Enterococcus faecium; FM 4-64 staining, Chlorine
  NVP values: 3
Enterococcus faecium; FM 4-64 staining, Heated
  NVP values: 3
Pseudomonas aeruginosa; FM 4-64 staining, Chlorine
  NVP values: 2
Pseudomonas aeruginosa; FM 4-64 staining, Heated
  NVP values: 1.8
Entrobacter aerogenes; FM 4-64 staining, Chlorine
  NVP values: 4.5
Entrobacter aerogenes; FM 4-64 staining, Heated
  NVP values: 3.3
Entrobacter aerogenes; FM 4-64 staining, UV-MP
  NVP values: 1.7

## CC1(C)S[C@@H]2[C@H](NC(=O)[C@H](N)c3ccccc3)C(=O)N2[C@H]1C(=O)O [ampicillin]
E. coli K12 (MG1655); 700 μg ampicillin, DEAD gate
  % from population: 15%
  SIR: 4.4
E. coli K12 (MG1655); 700 μg ampicillin, LIVE gate
  % from population: 83.7%
  SIR: 1
E. coli K12 (MG1655); 1500 μg ampicillin, DEAD gate
  % from population: 20%
  SIR: 5.3
E. coli K12 (MG1655); 1500 μg ampicillin, LIVE gate
  % from population: 78%
  SIR: 1
